# Source: patent EP4652843A1, “BIOPESTICIDE COMPOSITION, PROCEDURE OF OBTAIN THEREOF, AND METHOD FOR CONTROLLING AND TREATING BROAD SPECTRUM OF PESTS IN PLANTS” (Kimitec Biogroup S.L, priority 2024, dated 2025)
# “And” between values parts separate entries of the source, which are not always exact repeats. Equal values may be shown once. Marks after values point to notes of the source that are not given here.
# Legend:
# Tetranychus urticae = assay: Contact mortality (Leaf Disc Method), solvent comparison, Tetranychus urticae; conditions: Group A: individual solvents, diluted at 0.3% (3cc/L) in water without formulation, Abbott's corrected
# Protocol: (§1) The objective of this bioassay is to evaluate the effect of test items on the mortality of insect (Fam Tortricidae and Fam Gelechiidae) and other side pests as target in a short/medium-term (0-24 hours) by topical application. All trials were carried out on whole alive target. Four independent replicates of the whole setup were performed for each target as follow: (Figure 12) first of all, 10g/L agar-agar was prepared (1) and deposited in petri dish according to the target (2), after adding cut leaf disc around 4 cm diameter from healthy bean plants (3), fixing the plant material on the semi solid agar in the petri dish (4). Insect adults (from 3 to 15 according to the target) are setting on surface of leaf disc (5). Biopesticide composition was sprayed 0.1-02 ml per experimental unit (6), a total of 10 replicates for each treatment (biopesticide composition and positive control; commercial products based on anthranilic diamide and emamectin to recommend doses in the label) were used in each experiment and incubated and evaluated after 24 hours (7).
# (§2) Insects and mites were considered dead if no movement was apparent after probing with the tip of a fine brush under stereoscopic magnifying glass. Mortality percentage was calculated in treatment and control groups. If the mortality in negative control is above 20% the test was discarded.
# (§3) Means of %M were compared using a one-way analysis of variance (ANOVA, p<0.05) and LSD-test as a post hoc test to verify significant differences between single treatments using Statgraphics Centurion XVII software. When nonnormality in the data was detected, an additional Kruskal-Wallis test was conducted, and Box-and-Whisker Plot (Median Notch) was presented.
# (§4) The different compositions were tested by trials that were carried out on different relevant insect pests and acari including: Tuta absoluta, Bemisia tabaci, Myzus persicae, Frankliniella occidentalis and Tetranychus urticae. The bioassay type used was contact mortality (Leaf Disc Method) described in the example 4.
# (§5) The main treatments included in the comparison of efficacy are: Group A: Individual solvents: Benzyl alcohol, ethanol, isopropanol, and water were applied directly (purity as in the label) diluted at 0.3% (3cc/L) in water without formulation. Group B: Vegetable matrix extracts were extracted with different solvents such as benzyl alcohol, ethanol, isopropanol, and water in a blend of inert ingredients as follows: […]
# Bemisia tabaci = assay: Contact mortality (Leaf Disc Method), solvent comparison, Bemisia tabaci; conditions: Group A: individual solvents, diluted at 0.3% (3cc/L) in water without formulation, Abbott's corrected
# Protocol: as §1, §2, §3, §4, §5
# Myzus persicae = assay: Contact mortality (Leaf Disc Method), solvent comparison, Myzus persicae; conditions: Group A: individual solvents, diluted at 0.3% (3cc/L) in water without formulation, Abbott's corrected
# Protocol: as §1, §2, §3, §4, §5
# Tuta absoluta [1] = assay: Contact mortality (Leaf Disc Method), solvent comparison, Tuta absoluta; conditions: Group A: individual solvents, diluted at 0.3% (3cc/L) in water without formulation, Abbott's corrected
# Protocol: as §1, §2, §3, §4, §5
# [2] = system: Frankliniella occidentalis; assay: Contact mortality (Leaf Disc Method), solvent comparison, Frankliniella occidentalis; conditions: Group A: individual solvents, diluted at 0.3% (3cc/L) in water without formulation, Abbott's corrected
# Protocol: as §1, §2, §3, §4, §5
# [3] = cited from earlier work
# Cydia pomonella = assay: Field trial against Cydia pomonella in Pyrus communis and Malus domestica; format: in vivo; conditions: 0,2cc/L, one value per plot (1-3)
# Protocol: (§6) The biopesticide composition (table 2) was tested in field trials against Grapholita molesta in Prunus persica […] to validate efficacy, parametrised by % efficacy (abbott) on fruit damage incidence. 3 plots were treated, each plot has 4-6 trees with a sample size of 100-300 fruits/ plot. The trees were treated with biopesticide composition and positive control; commercial products based on chlorantraniliprole for recommend doses in the label in 2 applications at interval of 10 days. Table 9. % Efficacy against Grapholita molesta in field trials.
# The same test was repeated in Pyrus communis and Malus domestica to validate efficacy against Cydia pomonella. Table 10. % Efficacy against Cydia pomonella in field trials
# Grapholita molesta = assay: Field trial against Grapholita molesta in Prunus persica; format: in vivo; conditions: 0,2cc/L, % efficacy (abbott) on fruit damage incidence, one value per plot (1-3)
# Protocol: as §6
# [4] = system: lepidoptera larvae (Grapholita molesta); assay: Contact mortality (Leaf Disc Method), Grapholita molesta larvae; format: in vivo; conditions: dose 1.5 g/L; 24H after application; Abbott's corrected; mean of 4 repetitions
# Protocol: (§7) All trials were carried out on whole alive target.
# (§8) Mortality percentage was calculated in treatment and control groups.
# [5] = system: lepidoptera larvae (Tuta absoluta); assay: Contact mortality (Leaf Disc Method), Tuta absoluta larvae; format: in vivo; conditions: dose 0.5 kg/ha; 24H after application; Abbott's corrected; mean of 3 repetitions
# Protocol: as §7, §8
# Tuta absoluta [6] = assay: Field trial against Tuta absoluta in Solanum lycopersicum; format: in vivo; conditions: 1,5 gr/L, % efficacy (Henderson & Tilton) on damaged leaflets, one value per plot (1-3)
# Protocol: The biopesticide composition was tested in field trials against Tuta absoluta in Solanum lycopersicum to validate efficacy, parametrised by % efficacy (Henderson & Tilton) on damaged leaflets (50 random leaflets/Plot). 3 plots were treated, each plot has 10m^2. The plants were treated with biopesticide composition and positive control; commercial products based on emamectin for recommend doses in the label in 3 applications at interval of 7 days. Table 11. % Efficacy against Tuta absoluta in field trials
# [7] = system: lepidoptera larvae (Grapholita molesta); assay: Antifeedant effects: settling inhibition, Grapholita molesta larvae; format: in vivo; conditions: dose 1.5 g/L; 24H after application
# Protocol: The concept of antifeedant as a substance that acts on insect behaviour involves feeding reduction (FR) and settling inhibition (SI). In some cases, settling inhibition is considered as indirect repellent effect. […] Feeding reduction index (%FR) or settling inhibition index (%SI) was calculated according to the following formula: % FR or SI = (1−((T)/(C)))∗100 [formula] where: T= Settling of treated plants; C= Setting of control plants. Table 3. In vitro efficacy against lepidoptera larvae (Grapholita molesta)
# [8] = system: lepidoptera larvae (Tuta absoluta); assay: Antifeedant effects: feeding reduction (choice assays), Tuta absoluta larvae; format: in vivo; conditions: dose 0.5 kg/ha, surface covered by mines, 24H after application
# [9] = system: lepidoptera adults (Grapholita molesta); assay: Contact mortality (Leaf Disc Method), Grapholita molesta adults; format: in vivo; conditions: dose 1.5 g/L; 24H after application; Abbott's corrected
# Protocol: as §7, §8
# [10] = system: lepidoptera adults (Cydia pomonella); assay: Contact mortality (Leaf Disc Method), Cydia pomonella adults; format: in vivo; conditions: dose 1.5 g/L; 24H after application; Abbott's corrected
# Protocol: as §7, §8
compound,measurement,setting,value
"CC(C)O [Isopropanol (IPN), Isopropanol]",Contact mortality (%M) Tetranychus urticae,Tetranychus urticae,0.0 ± 0.0 ^b %
same,Contact mortality (%M) Bemisia tabaci,Bemisia tabaci,0.0 ± 0.0 ^c %
same,Contact mortality (%M) Myzus persicae,Myzus persicae,0.0 ± 0.0 ^b %
same,Contact mortality (%M) Tuta absoluta,Tuta absoluta [1],11.4 ± 7.2 ^b %
same,Contact mortality (%M) Frankliniella occidentalis,[2],0.0 ± 0.0 ^b %
"OCc1ccccc1 [Benzyl alcohol (BnOH), Benzyl alcohol]",Contact mortality (%M) Tetranychus urticae,Tetranychus urticae,33.4 ± 4.1 ^a %
same,Contact mortality (%M) Bemisia tabaci,Bemisia tabaci,49.8 ± 6.2 ^a %
same,Contact mortality (%M) Myzus persicae,Myzus persicae,19.8 ± 6.2 ^a %
same,solubility in water,[3],4 g/100 mL
same,Contact mortality (%M) Tuta absoluta,Tuta absoluta [1],29.6 ± 5.7 ^a %
same,Contact mortality (%M) Frankliniella occidentalis,[2],12.5 ± 7.8 ^a %
CNC(=O)c1cc(Cl)cc(C)c1NC(=O)c1cc(Br)nn1-c1ncccc1Cl [Chlorantraniliprole],% Efficacy against Cydia pomonella in field trials,Cydia pomonella; 10 days after the last application,59% and 62% and 75%
same,% Efficacy against Cydia pomonella in field trials,Cydia pomonella; 20 days after the last application,68% and 62% and 73%
same,% Efficacy against Grapholita molesta in field trials,Grapholita molesta; 14 days after the last application,58% and 63% and 42%
same,% Efficacy against Grapholita molesta in field trials,Grapholita molesta; 21 days after the last application,62% and 51% and 61%
Emamectin,Contact mortality (%M),[4],100.0 ± 0.0 ^(a) %
same,Contact mortality in-leaf (%M),[5],80.3 ± 8.7 ^(a) %
same,Contact mortality out-leaf (%M),[5],65.3 ± 3.8 ^(ab) %
same,% Efficacy against Tuta absoluta in field trials,Tuta absoluta [6]; 7 days after 1st application,62% and 43% and 71%
same,% Efficacy against Tuta absoluta in field trials,Tuta absoluta [6]; 7 days after 2nd application,53% and 58%
same,% Efficacy against Tuta absoluta in field trials,Tuta absoluta [6]; 7 days after 3rd application,67% and 61% and 55%
same,Settling inhibition (%SI),[7],36.0 ± 5.8%
same,Feeding reduction (%FR),[8],59.1 ± 0.8 %
same,Contact mortality (%M),[9],88.9 ± 2.0 ^(a) %
same,Contact mortality (%M),[10],94.5 ± 1.9 ^(a) %
O [Water],Contact mortality (%M) Tetranychus urticae,Tetranychus urticae; 1440 min,0.0 ± 0.0 ^b %
same,Contact mortality (%M) Bemisia tabaci,Bemisia tabaci; 1440 min,0.0 ± 0.0 ^c %
same,Contact mortality (%M) Myzus persicae,Myzus persicae; 1440 min,0.0 ± 0.0 ^b %
same,Contact mortality (%M) Tuta absoluta,Tuta absoluta [1]; 1440 min,0.0 ± 0.0 ^c %
same,Contact mortality (%M) Frankliniella occidentalis,[2]; 1440 min,0.0 ± 0.0 ^b %
"CCO [Ethanol (EtOH), Ethanol]",Contact mortality (%M) Tetranychus urticae,Tetranychus urticae,0.0 ± 0.0 ^b %
same,Contact mortality (%M) Bemisia tabaci,Bemisia tabaci,23.5 ± 8.4 ^b %
same,Contact mortality (%M) Myzus persicae,Myzus persicae,16.7 ± 9.1 ^a %
same,Contact mortality (%M) Tuta absoluta,Tuta absoluta [1],0.0 ± 0.0 ^c %
same,Contact mortality (%M) Frankliniella occidentalis,[2],0.0 ± 0.0 ^b %
